# Target: T1, recombinant human IDO1 enzyme (Homo sapiens, UniProt P14902)
# T1 construct: purchased NTRC NTRC-hlDO-10K
# Assay: In vitro hIDO1 enzyme activity test (NFK Green fluorescence)
# Type: biochemical
# Settings: recombinant human IDO1, L-tryptophan substrate, pH 6.5
# Protocol: The change of NFK production was detected by using the NFK Green™ fluorescent molecule, which is the metabolite of the IDO1 enzyme, and the IC50 value of the compound was used as an index, to evaluate the inhibitory effect of the compound on the recombinant human IDO1 enzyme.
# IDO1 Enzyme Activity Assay Kit, NTRC # NTRC-hlDO-10K;
# The compound was diluted to 1 mM in DMSO, and then diluted 3-fold in duplicate wells, with 10 gradients. 48 μL of 50 mM phosphate buffer (pH 6.5) was transferred to the compound plate via Bravo automated liquid handling platform. 2 μL of the diluted solution of the compound in DMSO was then added and mixed, followed by transferring 10 μL therein to an enzyme reaction plate.
# The IDO1 enzyme was diluted to 20 nM in the reaction buffer (50 mM phosphate buffer pH 6.5, 0.1% Tween-20, 2% glycerol, 20 mM ascorbic acid, 20 μg/mL catalase and 20 μM methylene blue), and 20 μL of the solution was transferred to an enzyme reaction plate and incubated at 23° C. for 30 min. The reaction was started by adding 10 μL of 400 μM L-type tryptophan substrate and incubated at 23° C. for 90 min. 10 μL of NFK Green™ fluorescent dye was added, and the plate was sealed with the sealing film, incubated at 37° C. for 4 h, and then read on Envision Multimode Plate Reader (Ex 400 nm/Em 510 nm).
# The control wells with the IDO1 enzyme but no compound was set as 0% inhibition, and the control wells without the IDO1 enzyme was set as 100% inhibition, and the IC50 value of the compound was calculated by analyzing the data with XLFit 5.
# T1 sequence (P14902 whole entry): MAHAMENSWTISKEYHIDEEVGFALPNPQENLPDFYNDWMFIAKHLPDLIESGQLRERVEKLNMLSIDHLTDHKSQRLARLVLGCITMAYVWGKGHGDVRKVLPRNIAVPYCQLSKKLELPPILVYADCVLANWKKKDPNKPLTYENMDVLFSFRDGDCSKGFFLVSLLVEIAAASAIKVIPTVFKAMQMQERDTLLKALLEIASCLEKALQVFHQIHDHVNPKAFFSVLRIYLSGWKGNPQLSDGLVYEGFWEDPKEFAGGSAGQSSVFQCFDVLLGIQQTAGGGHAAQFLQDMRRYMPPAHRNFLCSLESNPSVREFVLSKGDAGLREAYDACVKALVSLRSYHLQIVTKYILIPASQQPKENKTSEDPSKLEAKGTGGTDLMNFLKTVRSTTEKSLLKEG
row,SMILES,IC50
1,"OC(CC1c2nn(C(F)(F)F)cc2-c2cncn21)C1CCCCC1 (single isomer, unassigned) [Example 1, 1-cyclohexyl-2-(2-(trifluoromethyl)-2,8-dihydroimidazo[1′,5′:1,5]pyrrolo[3,4-c]pyrazol-8-yl)ethanol]",> 10 µM
2,"OC(CC1c2nn(C(F)(F)F)cc2-c2cncn21)C1CCCCC1 (single isomer, unassigned) [Example 2, 1-cyclohexyl-2-(2-(trifluoromethyl)-2,8-dihydroimidazo[1′,5′:1,5]pyrrolo[3,4-c]pyrazol-8-yl)ethanol]",> 10 µM
3,"OC(CC1c2nn(C(F)(F)F)cc2-c2cncn21)C1CCCCC1 (single isomer, unassigned) [Example 3, 1-cyclohexyl-2-(2-(trifluoromethyl)-2,8-dihydroimidazo[1′,5′:1,5]pyrrolo[3,4-c]pyrazol-8-yl)ethanol]",> 10 µM
4,"OC(CC1c2sccc2-c2cncn21)C1CCCCC1 (single isomer, unassigned) [Example 5, cyclohexyl-2-(8H-thieno[3′,2′:3,4]pyrrolo[1,2-c]imidazol-8-yl)ethanol]",5.03 µM
5,"OC(CC1c2sccc2-c2cncn21)C1CCCCC1 (single isomer, unassigned) [Example 6, cyclohexyl-2-(8H-thieno[3′,2′:3,4]pyrrolo[1,2-c]imidazol-8-yl)ethanol]",9.67 µM
6,"OC(CC1c2sccc2-c2cncn21)C1CCCCC1 (single isomer, unassigned) [Example 8, cyclohexyl-2-(8H-thieno[3′,2′:3,4]pyrrolo[1,2-c]imidazol-8-yl)ethanol]",0.0648 µM
7,"c1cc2c(s1)C(C1CCCCC1)n1cncc1-2 (single isomer, unassigned) [Example 13, 8-cyclohexyl-8H-thieno[3,4]pyrrolo[1,5-a]imidazole]",> 10 µM
8,"c1cc2c(s1)C(CC1CCCCC1)n1cncc1-2 (single isomer, unassigned) [Example 15, 8-(cyclohexylmethyl)-8H-thieno[3,4]pyrrolo[1,5-a]imidazole]",5.22 µM
9,"c1cc2c(s1)C(COC1CCCCC1)n1cncc1-2 (single isomer, unassigned) [Example 17, 8-((cyclohexyloxy)methyl)-8H-thieno[3′,2′:3,4]pyrrolo[1,2-c]imidazole]",0.338 µM
10,"c1cc2c(s1)C(COC1CCCCC1)n1cncc1-2 (single isomer, unassigned) [Example 18, 8-((cyclohexyloxy)methyl)-8H-thieno[3′,2′:3,4]pyrrolo[1,2-c]imidazole]",> 10 µM
11,"Fc1cc2c(s1)C(CCC1CCCCC1)n1cncc1-2 (single isomer, unassigned) [Example 19, 8-(2-cyclohexylethyl)-2-fluoro-8H-thieno[3′,2′:3,4]pyrrolo[1,2-c]imidazole]",> 10 µM
12,"Fc1cc2c(s1)C(CCC1CCCCC1)n1cncc1-2 (single isomer, unassigned) [Example 20, 8-(2-cyclohexylethyl)-2-fluoro-8H-thieno[3′,2′:3,4]pyrrolo[1,2-c]imidazole]",0.586 µM
13,"FC1(F)CCC(CCC2c3sccc3-c3cncn32)CC1 (single isomer, unassigned) [Example 21, 8-(2-(4,4-difluorocyclohexyl)ethyl)-8H-thieno[3′,2′:3,4]pyrrolo[1,2-c]imidazole]",9.16 µM
14,"O=C1CC[C@H]2C[C@@H]([C@@H](O)CC3c4sccc4-c4cncn43)CCN12 (single isomer, unassigned) [Example 26]",> 10 µM
15,"O=C1CC[C@H]2C[C@@H]([C@@H](O)CC3c4sccc4-c4cncn43)CCN12 (single isomer, unassigned) [Example 27]",0.869 µM
16,"c1cc2c(s1)C(C1CCCOC1)n1cncc1-2 (single isomer, unassigned) [Example 33, 8-(tetrahydro-2H-pyran-3-yl)-8H-thieno[3′,2′:3,4]pyrrolo[1,2-c]imidazole]",> 10 µM

row,SMILES,IC50
1,"c1cc2c(s1)C(C1CCCOC1)n1cncc1-2 (single isomer, unassigned) [Example 34, 8-(tetrahydro-2H-pyran-3-yl)-8H-thieno[3′,2′:3,4]pyrrolo[1,2-c]imidazole]",> 10 µM
2,"c1cc2c(s1)C(C1CCCOC1)n1cncc1-2 (single isomer, unassigned) [Example 35, 8-(tetrahydro-2H-pyran-3-yl)-8H-thieno[3′,2′:3,4]pyrrolo[1,2-c]imidazole]",2.81 µM
3,"c1cc2c(s1)C(C1CCCOC1)n1cncc1-2 (single isomer, unassigned) [Example 36, 8-(tetrahydro-2H-pyran-3-yl)-8H-thieno[3′,2′:3,4]pyrrolo[1,2-c]imidazole]",2.43 µM
4,"c1cc2c(s1)C(C1CCOCC1)n1cncc1-2 (single isomer, unassigned) [Example 37, 8-tetrahydropyran-4-8H-thieno[3,4]pyrrolo[1,5-a]imidazole]",2.4 µM
5,"c1cc2c(s1)C(C1CCOCC1)n1cncc1-2 (single isomer, unassigned) [Example 38, 8-tetrahydropyran-4-8H-thieno[3,4]pyrrolo[1,5-a]imidazole]",> 10 µM
6,"FC1(F)CCC([C@@H]2c3sccc3-c3cncn32)CC1 (single isomer, unassigned) [Example 40]",> 10 µM
7,"OCC1(C2c3sccc3-c3cncn32)CCCCC1 (single isomer, unassigned) [Example 43, [1-(8H-thieno[3,4]pyrrolo[1,5-a]imidazol-8-yl)cyclohexyl]methanol]",> 10 µM
8,"c1cc2c(s1)C(C1CCC3(CC1)CC3)n1cncc1-2 (single isomer, unassigned) [Example 44, 8-spiro[2.5]octan-6-yl-8H-thieno[3,4]pyrrolo[1,5-a]imidazole]",> 10 µM
9,"c1cc2c(s1)C(C1CCC3(CC1)CC3)n1cncc1-2 (single isomer, unassigned) [Example 45, 8-spiro[2.5]octan-6-yl-8H-thieno[3,4]pyrrolo[1,5-a]imidazole]",3.83 µM
10,"c1cc2c(s1)C(C13CCC(CC1)CC3)n1cncc1-2 (single isomer, unassigned) [Example 48, 8-(4-bicyclo[2.2.2]octyl)-8H-thieno[3,4]pyrrolo[1,5-a]imidazole]",0.518 µM
11,"c1cc2c(s1)C(C13CCC(CC1)CC3)n1cncc1-2 (single isomer, unassigned) [Example 49, 8-(4-bicyclo[2.2.2]octyl)-8H-thieno[3,4]pyrrolo[1,5-a]imidazole]",> 10 µM
12,"OC1CCCCC1C1c2sccc2-c2cncn21 (single isomer, unassigned) [Example 50, 2-(8H-thieno[3,4]pyrrolo[1,5-a]imidazol-8-yl)cyclohexanol]",> 10 µM
13,"OC1CCCCC1C1c2sccc2-c2cncn21 (single isomer, unassigned) [Example 51, 2-(8H-thieno[3,4]pyrrolo[1,5-a]imidazol-8-yl)cyclohexanol]",> 10 µM
14,"OC1CCCCC1C1c2sccc2-c2cncn21 (single isomer, unassigned) [Example 52, 2-(8H-thieno[3,4]pyrrolo[1,5-a]imidazol-8-yl)cyclohexanol]",0.676 µM
15,"c1ccc2c(c1)CCC(C1c3sccc3-c3cncn31)C2 (single isomer, unassigned) [Example 54, 8-tetrahydronaphthalen-2-yl-8H-thieno[3,4]pyrrolo[1,5-a]imidazole]",> 10 µM

# — US10487088B2, “Tricyclic compound serving as immunomodulator” (Chia Tai Tianqing Pharmaceutical Group Co., Ltd., priority 2016, dated 2019)
